Key:
Assay type in all cases: cell-based
[1] = biological target: BaF3 cell lines stably transfected with kinase EGFR Del (Homo sapiens, UniProt P00533, cells depend on it, form not given); assay: Growth inhibition of BaF3 cell line stably transfected with kinase EGFR Del (MTS); conditions: 48 h, read-out: growth inhibitory activity IC50, Del
Procedure, shortened: (§1)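 Transfected BaF3 cells exposed 48 h at 37 °C to 8-point, 1/3-step dilutions from 10 μM top in 0.1% DMSO, duplicates. MTS/PES added for 1-4 h, OD 490 nm read; inhibition normalised to DMSO and cell-free blank, IC50 fitted from inhibition rates.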

[2] = biological target: BaF3 cell lines stably transfected with kinase EGFR L858R (Homo sapiens, UniProt P00533, L858R, cells depend on it); assay: Growth inhibition of BaF3 cell line stably transfected with kinase EGFR L858R (MTS); conditions: 48 h, read-out: growth inhibitory activity IC50, L858R
BaF3 cell lines stably transfected with kinase EGFR L858R, sequence (P00533 whole entry L858R): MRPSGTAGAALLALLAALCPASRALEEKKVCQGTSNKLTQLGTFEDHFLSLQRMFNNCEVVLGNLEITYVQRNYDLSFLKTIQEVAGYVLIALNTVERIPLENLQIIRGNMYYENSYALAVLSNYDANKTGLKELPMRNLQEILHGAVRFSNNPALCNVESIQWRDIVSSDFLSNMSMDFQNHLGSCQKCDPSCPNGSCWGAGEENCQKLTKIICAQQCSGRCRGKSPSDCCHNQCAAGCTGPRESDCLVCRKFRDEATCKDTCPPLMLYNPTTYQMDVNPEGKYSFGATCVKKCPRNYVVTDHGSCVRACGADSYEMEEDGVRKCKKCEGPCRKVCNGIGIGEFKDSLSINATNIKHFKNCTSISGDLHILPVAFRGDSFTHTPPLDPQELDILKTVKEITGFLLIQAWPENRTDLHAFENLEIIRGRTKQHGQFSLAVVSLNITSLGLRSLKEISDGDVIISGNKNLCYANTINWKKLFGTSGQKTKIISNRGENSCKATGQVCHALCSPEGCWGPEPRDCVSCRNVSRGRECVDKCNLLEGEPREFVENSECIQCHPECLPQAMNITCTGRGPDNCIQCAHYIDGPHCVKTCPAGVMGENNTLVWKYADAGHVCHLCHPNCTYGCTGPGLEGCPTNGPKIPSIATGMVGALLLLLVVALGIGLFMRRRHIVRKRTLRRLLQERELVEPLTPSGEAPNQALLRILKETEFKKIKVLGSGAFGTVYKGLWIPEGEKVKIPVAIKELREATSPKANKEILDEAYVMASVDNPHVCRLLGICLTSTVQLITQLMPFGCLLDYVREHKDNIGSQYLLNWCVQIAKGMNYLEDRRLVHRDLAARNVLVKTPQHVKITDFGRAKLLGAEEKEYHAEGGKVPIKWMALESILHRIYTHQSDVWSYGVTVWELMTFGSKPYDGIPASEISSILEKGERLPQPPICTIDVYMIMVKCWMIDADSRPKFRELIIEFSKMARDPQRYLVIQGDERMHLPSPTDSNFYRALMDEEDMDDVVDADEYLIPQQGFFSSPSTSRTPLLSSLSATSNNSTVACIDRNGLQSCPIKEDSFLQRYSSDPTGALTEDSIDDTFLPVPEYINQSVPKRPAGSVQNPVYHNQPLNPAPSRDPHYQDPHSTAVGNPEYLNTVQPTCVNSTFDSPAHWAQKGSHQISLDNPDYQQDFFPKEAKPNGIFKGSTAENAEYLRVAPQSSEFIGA
Procedure, shortened: as §1

[3] = biological target: BaF3 cell lines stably transfected with kinase EGFR Del/T790M (Homo sapiens, UniProt P00533, T790M, cells depend on it, form not given); assay: Growth inhibition of BaF3 cell line stably transfected with kinase EGFR Del/T790M (MTS); conditions: 48 h, read-out: growth inhibitory activity IC50, Del/T790M
BaF3 cell lines stably transfected with kinase EGFR Del/T790M, sequence (P00533 with tags, fused parts or gaps DEL746-750/T790M, form open): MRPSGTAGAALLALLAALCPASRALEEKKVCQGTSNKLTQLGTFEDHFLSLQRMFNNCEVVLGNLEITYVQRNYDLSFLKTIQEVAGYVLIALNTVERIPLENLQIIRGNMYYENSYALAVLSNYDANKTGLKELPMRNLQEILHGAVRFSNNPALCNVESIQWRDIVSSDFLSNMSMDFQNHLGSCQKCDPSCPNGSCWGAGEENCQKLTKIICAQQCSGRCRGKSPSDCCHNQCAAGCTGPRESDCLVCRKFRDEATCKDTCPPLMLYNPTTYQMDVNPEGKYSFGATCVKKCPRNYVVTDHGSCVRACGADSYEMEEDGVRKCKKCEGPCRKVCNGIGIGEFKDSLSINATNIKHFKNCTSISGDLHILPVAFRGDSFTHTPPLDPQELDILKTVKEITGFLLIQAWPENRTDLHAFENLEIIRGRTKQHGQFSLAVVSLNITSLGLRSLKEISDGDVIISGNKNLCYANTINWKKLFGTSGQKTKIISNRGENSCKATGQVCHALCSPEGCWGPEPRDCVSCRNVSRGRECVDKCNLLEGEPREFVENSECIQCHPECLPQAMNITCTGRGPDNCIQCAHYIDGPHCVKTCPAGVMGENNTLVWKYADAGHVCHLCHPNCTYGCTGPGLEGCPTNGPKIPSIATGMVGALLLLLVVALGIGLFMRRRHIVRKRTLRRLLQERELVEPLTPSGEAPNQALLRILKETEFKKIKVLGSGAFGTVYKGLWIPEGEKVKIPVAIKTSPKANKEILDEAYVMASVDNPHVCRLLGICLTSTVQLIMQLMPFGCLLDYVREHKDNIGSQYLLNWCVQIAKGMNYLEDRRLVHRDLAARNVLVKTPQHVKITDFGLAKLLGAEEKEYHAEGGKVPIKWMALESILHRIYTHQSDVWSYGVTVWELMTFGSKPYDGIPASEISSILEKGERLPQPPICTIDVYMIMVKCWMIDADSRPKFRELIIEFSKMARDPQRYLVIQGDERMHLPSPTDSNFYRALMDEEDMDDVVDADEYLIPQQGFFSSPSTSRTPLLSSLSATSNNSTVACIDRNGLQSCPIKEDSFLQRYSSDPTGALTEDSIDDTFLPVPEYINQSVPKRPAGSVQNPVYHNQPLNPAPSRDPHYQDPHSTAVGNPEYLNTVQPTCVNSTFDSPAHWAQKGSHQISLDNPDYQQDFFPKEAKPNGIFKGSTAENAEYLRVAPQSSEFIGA
Procedure, shortened: as §1

[4] = biological target: BaF3 cell lines stably transfected with kinase EGFR L858R/T790M (Homo sapiens, UniProt P00533, T790M/L858R, cells depend on it); assay: Growth inhibition of BaF3 cell line stably transfected with kinase EGFR L858R/T790M (MTS); conditions: 48 h, read-out: growth inhibitory activity IC50, L858R/T790M
BaF3 cell lines stably transfected with kinase EGFR L858R/T790M, sequence (P00533 whole entry T790M/L858R): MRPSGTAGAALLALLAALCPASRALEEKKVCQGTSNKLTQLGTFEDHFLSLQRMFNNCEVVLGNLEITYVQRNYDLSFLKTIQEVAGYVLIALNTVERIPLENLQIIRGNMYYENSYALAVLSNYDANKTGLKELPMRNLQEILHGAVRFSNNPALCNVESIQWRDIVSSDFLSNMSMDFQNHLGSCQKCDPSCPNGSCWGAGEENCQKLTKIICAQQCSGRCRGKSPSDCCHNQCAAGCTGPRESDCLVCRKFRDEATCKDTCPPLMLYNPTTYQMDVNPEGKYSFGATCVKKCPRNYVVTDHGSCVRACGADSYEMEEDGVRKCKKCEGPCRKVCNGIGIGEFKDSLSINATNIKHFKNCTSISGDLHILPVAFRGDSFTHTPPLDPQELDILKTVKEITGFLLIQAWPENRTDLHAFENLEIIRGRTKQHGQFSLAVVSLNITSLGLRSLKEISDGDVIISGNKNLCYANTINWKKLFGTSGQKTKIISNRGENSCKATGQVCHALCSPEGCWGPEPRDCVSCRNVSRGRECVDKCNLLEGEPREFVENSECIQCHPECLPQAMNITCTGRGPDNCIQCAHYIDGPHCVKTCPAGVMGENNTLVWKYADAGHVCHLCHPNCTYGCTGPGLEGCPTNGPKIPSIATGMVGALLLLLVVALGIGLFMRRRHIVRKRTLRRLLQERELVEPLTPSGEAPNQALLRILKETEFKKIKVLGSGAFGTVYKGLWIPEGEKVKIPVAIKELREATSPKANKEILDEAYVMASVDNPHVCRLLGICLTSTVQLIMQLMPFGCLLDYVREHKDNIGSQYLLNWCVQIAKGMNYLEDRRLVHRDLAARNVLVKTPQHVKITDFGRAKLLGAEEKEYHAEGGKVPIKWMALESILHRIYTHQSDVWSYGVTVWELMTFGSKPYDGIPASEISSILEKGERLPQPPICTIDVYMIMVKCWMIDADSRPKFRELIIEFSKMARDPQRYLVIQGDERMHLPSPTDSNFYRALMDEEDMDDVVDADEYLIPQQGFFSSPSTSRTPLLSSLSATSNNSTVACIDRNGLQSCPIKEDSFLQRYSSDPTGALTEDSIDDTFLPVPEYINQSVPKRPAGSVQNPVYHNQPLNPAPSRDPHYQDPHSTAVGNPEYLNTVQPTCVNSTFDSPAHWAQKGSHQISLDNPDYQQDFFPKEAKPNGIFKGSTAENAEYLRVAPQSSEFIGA
Procedure, shortened: as §1

[5] = biological target: BaF3 cell lines stably transfected with kinase EGFR Del/T790M/C797S (Homo sapiens, UniProt P00533, T790M/C797S, cells depend on it, form not given); assay: Growth inhibition of BaF3 cell line stably transfected with kinase EGFR Del/T790M/C797S (MTS); conditions: 48 h, read-out: growth inhibitory activity IC50, Del/T790M/C797S
Procedure, shortened: as §1

[6] = biological target: BaF3 cell lines stably transfected with kinase EGFR L858R/T790M/C797S (Homo sapiens, UniProt P00533, T790M/C797S/L858R, cells depend on it); assay: Growth inhibition of BaF3 cell line stably transfected with kinase EGFR L858R/T790M/C797S (MTS); conditions: 48 h, read-out: growth inhibitory activity IC50, L858R/T790M/C797S
BaF3 cell lines stably transfected with kinase EGFR L858R/T790M/C797S, sequence (P00533 whole entry T790M/C797S/L858R): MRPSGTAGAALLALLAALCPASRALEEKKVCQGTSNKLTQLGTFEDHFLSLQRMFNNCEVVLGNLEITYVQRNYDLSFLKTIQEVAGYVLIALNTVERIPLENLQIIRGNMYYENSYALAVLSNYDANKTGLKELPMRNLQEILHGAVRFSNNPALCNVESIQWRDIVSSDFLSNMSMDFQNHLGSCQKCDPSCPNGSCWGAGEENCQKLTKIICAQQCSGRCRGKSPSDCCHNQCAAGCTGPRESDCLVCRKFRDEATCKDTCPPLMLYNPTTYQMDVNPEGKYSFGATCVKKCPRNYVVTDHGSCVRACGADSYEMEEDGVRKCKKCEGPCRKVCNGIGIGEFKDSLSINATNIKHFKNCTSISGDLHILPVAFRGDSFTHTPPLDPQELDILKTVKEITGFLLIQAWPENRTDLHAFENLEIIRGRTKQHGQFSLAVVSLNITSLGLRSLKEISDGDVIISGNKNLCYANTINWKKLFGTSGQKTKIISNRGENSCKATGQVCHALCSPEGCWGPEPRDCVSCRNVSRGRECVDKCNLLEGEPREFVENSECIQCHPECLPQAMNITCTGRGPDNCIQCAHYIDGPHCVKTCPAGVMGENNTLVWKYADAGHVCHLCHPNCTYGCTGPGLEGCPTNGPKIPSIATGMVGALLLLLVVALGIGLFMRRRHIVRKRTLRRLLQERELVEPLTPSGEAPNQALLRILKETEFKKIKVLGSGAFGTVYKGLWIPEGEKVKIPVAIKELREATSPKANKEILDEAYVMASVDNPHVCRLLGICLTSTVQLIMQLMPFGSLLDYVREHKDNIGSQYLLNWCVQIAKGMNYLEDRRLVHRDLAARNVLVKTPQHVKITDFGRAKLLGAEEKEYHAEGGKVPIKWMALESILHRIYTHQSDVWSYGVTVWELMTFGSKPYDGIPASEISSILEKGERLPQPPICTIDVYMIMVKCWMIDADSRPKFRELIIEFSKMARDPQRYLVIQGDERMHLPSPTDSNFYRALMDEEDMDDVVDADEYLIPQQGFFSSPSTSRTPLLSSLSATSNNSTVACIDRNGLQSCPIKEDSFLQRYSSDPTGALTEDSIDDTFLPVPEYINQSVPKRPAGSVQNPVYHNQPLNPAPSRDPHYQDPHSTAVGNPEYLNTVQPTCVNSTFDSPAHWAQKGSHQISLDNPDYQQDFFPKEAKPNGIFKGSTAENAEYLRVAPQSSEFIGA
Procedure, shortened: as §1

Row | SMILES | GI50 [1] [µM] | GI50 [2] [µM] | GI50 [3] [µM] | GI50 [4] [µM] | GI50 [5] [µM] | GI50 [6] [µM]
1 | C=Cc1cnc(Nc2cc(CC)c(N3CCC(N4CCN(C)CC4)CC3)cc2OC)nc1Nc1ccc2nccnc2c1S(=O)(=O)NC [IV-3] | 0.05 to 0.5 | 0.05 to 0.5 | 0.05 to 0.5 | 0.05 to 0.5 | 0.05 to 0.5 | 0.05 to 0.5
2 | C=Cc1cnc(Nc2cc(CC)c(N3CCC(N4CCN(C)CC4)CC3)nc2OC)nc1Nc1ccc2nccnc2c1S(=O)(=O)NC [IV-4] | 0.5 to 2.5 | 0.5 to 2.5 | 0.05 to 0.5 | 0.05 to 0.5 | 0.5 to 2.5 | 0.05 to 0.5
3 | C=Cc1cnc(Nc2cc(CC)c(N3CCC(N4CCN(C)CC4)CC3)cc2OC(F)(F)F)nc1Nc1ccc2nccnc2c1S(=O)(=O)NC [IV-5] | 0.5 to 2.5 | 0.5 to 2.5 | 0.05 to 0.5 | 0.05 to 0.5 | 0.5 to 2.5 | 0.5 to 2.5
4 | C=Cc1cnc(Nc2cc(C(C)C)c(N3CCC(N4CCN(C)CC4)CC3)cc2OC)nc1Nc1ccc2nccnc2c1S(=O)(=O)NC [IV-6] | 0.5 to 2.5 | 0.5 to 2.5 | 0.05 to 0.5 | 0.05 to 0.5 | 0.5 to 2.5 | 0.5 to 2.5
5 | C=Cc1cnc(Nc2cc(C3CC3)c(N3CCC(N4CCN(C)CC4)CC3)cc2OC)nc1Nc1ccc2nccnc2c1S(=O)(=O)NC [IV-7] | 0.05 to 0.5 | 0.05 to 0.5 | 0.05 to 0.5 | 0.05 to 0.5 | 0.05 to 0.5 | 0.05 to 0.5
6 | C=Cc1cnc(Nc2cc(CC3CC3)c(N3CCC(N4CCN(C)CC4)CC3)cc2OC)nc1Nc1ccc2nccnc2c1S(=O)(=O)NC [IV-8] | 0.05 to 0.5 | 0.5 to 2.5 | 0.05 to 0.5 | 0.05 to 0.5 | 0.05 to 0.5 | 0.05 to 0.5
7 | C=Cc1cnc(Nc2ccc(N3CCC(N4CCN(C)CC4)CC3)c(CC)c2)nc1Nc1ccc2nccnc2c1S(=O)(=O)NC [IV-9] | 0.05 to 0.5 | 0.05 to 0.5 | 0.05 to 0.5 | ≤ 0.05 | 0.05 to 0.5 | 0.05 to 0.5
8 | C=Cc1cnc(Nc2ccc(N3CCC(N4CCN(C)CC4)CC3)c(F)c2F)nc1Nc1ccc2nccnc2c1S(=O)(=O)NC [IV-10] | 0.05 to 0.5 | 0.05 to 0.5 | 0.05 to 0.5 | ≤ 0.05 | 0.05 to 0.5 | 0.05 to 0.5
9 | C=Cc1cnc(Nc2cc(F)c(N3CCC(N4CCN(C)CC4)CC3)c(F)c2)nc1Nc1ccc2nccnc2c1S(=O)(=O)NC [IV-11] | 0.05 to 0.5 | 0.05 to 0.5 | 0.05 to 0.5 | ≤ 0.05 | 0.05 to 0.5 | 0.05 to 0.5
10 | C=Cc1cnc(Nc2cc(CC)c(N3CCC(N(C)C)CC3)cc2OC)nc1Nc1ccc2nccnc2c1S(=O)(=O)NC [IV-13] | 0.05 to 0.5 | 0.05 to 0.5 | 0.05 to 0.5 | 0.05 to 0.5 | 0.05 to 0.5 | 0.05 to 0.5
11 | C=Cc1cnc(Nc2cc(CC)c(N3CCC(N(C)C)C3)cc2OC)nc1Nc1ccc2nccnc2c1S(=O)(=O)NC (stereo not drawn) [IV-14] | 0.05 to 0.5 | 0.05 to 0.5 | 0.05 to 0.5 | 0.05 to 0.5 | 0.05 to 0.5 | 0.05 to 0.5
12 | C=Cc1cnc(Nc2cc(CC)c(N3CCN(C)CC3)cc2OC)nc1Nc1ccc2nccnc2c1S(=O)(=O)NC [IV-15] | 0.05 to 0.5 | 0.05 to 0.5 | 0.05 to 0.5 | 0.05 to 0.5 | 0.05 to 0.5 | 0.05 to 0.5
13 | C=Cc1cnc(Nc2cc(C)c(N3CCC(N4CCN(C)CC4)CC3)cc2OC)nc1Nc1ccc2nccnc2c1S(=O)(=O)NC(C)C [IV-17] | 0.5 to 2.5 | 0.05 to 0.5 | 0.05 to 0.5 | 0.05 to 0.5 | 0.5 to 2.5 | 0.5 to 2.5
14 | C=Cc1cnc(Nc2cc(CC)c(N3CCC(N4CCN(C)CC4)CC3)cc2OC)nc1Nc1ccc2nccnc2c1S(=O)(=O)NC(C)C [IV-18] | 0.05 to 0.5 | 0.05 to 0.5 | 0.05 to 0.5 | 0.05 to 0.5 | 0.5 to 2.5 | 0.5 to 2.5
